# Source: patent publication US11466025B2, “Thienopyridine derivatives containing unsaturated aliphatic olefinic bond, preparation method and use thereof” (Tianjin Institute of Pharmaceutical Research Co., Ltd., priority 2017, dated 2022)
# Read-outs that look alike come from different tables or passages of the source.
# What was measured:
# [1] = Stability of the compounds under high temperature, high humidity and light (influence factors, HPLC); assay type: physicochemical
# Procedure: Study on the Stability of the Compounds:
# The stability of the compound is investigated under the conditions of high temperature, high humidity and light. The testing conditions for high performance liquid chromatography (HPLC) are as follows:
# Instrument: high performance liquid chromatography;
# Column: Inertsil C8-3, 150 mm×4.6 mm, 5 μm;
# Mobile phase A: acetonitrile; mobile phase B: 5 mM ammonium dihydrogen phosphate;
# Detection wavelength: 220 nm;
# Column temperature: 35° C.;
# Sample chamber temperature: 25° C.;
# Column: Agilent Poroshell 120 EC-C18, 100 mm×4.6 mm, 2.7 μm;
# Column temperature: 30° C.;
# Other conditions are the same as that in Method 1.
# Samples relating to Compound I-2 were tested using Method 2 and other samples were tested using Method 1. The test results of the influence factors are shown in Table 14, and the test results of the light-avoidance stability test are shown in Table 15.
# [2] = 1 μM
# Procedure: Plasma samples (double sample) containing 1 μM of the compounds of the present invention, clopidogrel hydrogen sulfate (LBGL), 2-oxo product (2-Oxo) were prepared from human blank plasma, and incubated at 37° C. 50 μL of the above incubated plasma samples were taken at different time points, and 100 μL of precipitant (acetonitrile:methanol=7:3) and 50 μL of internal standard were added. The mixture was vortexed for 1 min and centrifuged for 10 min. 100 μL of the supernatant was taken into an inner inserted tube, centrifuged for 5 min, and injected for LC-MS/MS analysis.
# Preparation of blank control sample (PPT-0): 100 μL of frozen human blank plasma was taken, to which 195 μL of acetonitrile and 100 μL of internal standard were added, followed by 5 μL of the compound of the present invention, clopidogrel or 2-oxo product (20 μM). The mixture was vortexed for 1 min and centrifuged for 10 min. 100 μL of the supernatant was taken into an inner inserted tube, centrifuged for 5 min, and injected for LC-MS/MS analysis.
# [3] = system: platelet aggregation induced by ADP; assay: Test of inhibitory effect of compounds on platelet aggregation in rats (ex vivo, ADP-induced, after intragastric administration); parameters: species or system SD rats; details: rats; for Inhibition rate (%): platelet aggregation, control = 100%; for Aggregation rate (%): 2 h after administration, ADP 20 uM
# Procedure: Test of Inhibitory Effect of Compounds on Platelet Aggregation in Rats Healthy male SD rats were selected and randomly divided into solvent control group, positive drug control group and test compound group. Intragastric administration was carried out, with the administration volume being 10 ml/kg˜bw. […] The platelet count was adjusted to 5×10^8 cells/ml with PPP.
# beagle dogs = assay: Safety evaluation in multiple dosing (14 days); assay type: in vivo; details: for ECG examinations, hematological tests and serum biochemical tests: day 7 and 14
# Procedure: Safety Evaluation of Compounds I-1 and I-2 in Multiple Dosing:
# The test consisted of a physiological control group, a solvent control group, and two administration groups, with 4 animals in each group, half of which were male and the other half of which were female. Two dose groups, 100 mg/kg group and 300 mg/kg group, were set for the test compounds, to which the test compounds at doses of 100 mg/kg and 300 mg/kg were intragastrically administered respectively over 14 days. The solvent control group was administered with an equal volume of the blank solvent. Animals were daily observed for various conditions during the test. ECG examinations were performed before administration, and 7 and 14 days after administration. Hematological and blood biochemical tests were performed before administration and 7 and […] after administration.
# [4] = 5 days, High temperature 60° C.
# [5] = 10 days, High temperature 60° C.
# [6] = 30 days, High temperature 60° C.
# [7] = intragastric 100 mg/kg over 14 days
# [8] = intragastric 300 mg/kg over 14 days
structure (smiles),measurement,setting,value
"C/C=C/C=C/C(=O)Oc1cc2c(s1)CCN([C@H](C(=O)OC)c1ccccc1Cl)C2 [Compound I-2, Methyl (S)-2-(2-chlorophenyl)-2-(2-((2E,4E)-2,4-hexadienoyloxy)-6,7-dihydrothieno[3,2-c]pyridin-5(4H)-yl)-acetate]",Chromatographic purity %,"[1]; 0 day, 0point",98.879%
same,Isomer %,"[1]; 0 day, 0point",0.705%
same,Chromatographic purity %,"[1]; 5 days, High humidity RH92.5%",98.897%
same,Isomer %,"[1]; 5 days, High humidity RH92.5%",0.707%
same,Chromatographic purity %,[1]; [4],98.840%
same,Isomer %,[1]; [4],0.696%
same,Chromatographic purity %,"[1]; 5 days, Light 4500 ± 500 LX",98.853%
same,Isomer %,"[1]; 5 days, Light 4500 ± 500 LX",0.699%
same,Chromatographic purity %,"[1]; 10 days, High humidity RH92.5%",98.882%
same,Isomer %,"[1]; 10 days, High humidity RH92.5%",0.708%
same,Chromatographic purity %,[1]; [5],98.930%
same,Isomer %,[1]; [5],0.692%
same,Chromatographic purity %,"[1]; 10 days, Light 4500 ± 500 LX",98.756%
same,Isomer %,"[1]; 10 days, Light 4500 ± 500 LX",0.712%
same,Chromatographic purity %,"[1]; 30 days, High humidity RH92.5%",98.885%
same,Isomer %,"[1]; 30 days, High humidity RH92.5%",0.704%
same,Chromatographic purity %,[1]; [6],98.936%
same,Isomer %,[1]; [6],0.683%
same,Chromatographic purity %,"[1]; 30 days, Light 4500 ± 500 LX",95.099%
same,Isomer %,"[1]; 30 days, Light 4500 ± 500 LX",0.695%
same,2-Oxo metabolite concentration in human plasma,[2]; 0 min,0.0192 µM
same,"2-Oxo metabolite in human plasma, %",[2]; 0 min,1.74%
same,Concentration of incubated compound in human plasma,[2]; 0 min,1110 nM
same,"Incubated compound in human plasma, %",[2]; 0 min,100%
same,Generation of 2-oxo (2-Oxo) product in human plasma,[2],rapidly generate 2-oxo products
same,2-Oxo metabolite concentration in human plasma,[2]; 5 min,0.0246 µM
same,"2-Oxo metabolite in human plasma, %",[2]; 5 min,2.23%
same,Concentration of incubated compound in human plasma,[2]; 5 min,1030 nM
same,"Incubated compound in human plasma, %",[2]; 5 min,93.5%
same,2-Oxo metabolite concentration in human plasma,[2]; 10 min,0.0319 µM
same,"2-Oxo metabolite in human plasma, %",[2]; 10 min,2.89%
same,Concentration of incubated compound in human plasma,[2]; 10 min,1030 nM
same,"Incubated compound in human plasma, %",[2]; 10 min,92.8%
same,2-Oxo metabolite concentration in human plasma,[2]; 20 min,0.0449 µM
same,"2-Oxo metabolite in human plasma, %",[2]; 20 min,4.06%
same,Concentration of incubated compound in human plasma,[2]; 20 min,1070 nM
same,"Incubated compound in human plasma, %",[2]; 20 min,97.1%
same,2-Oxo metabolite concentration in human plasma,[2]; 30 min,0.0493 µM
same,"2-Oxo metabolite in human plasma, %",[2]; 30 min,4.46%
same,Concentration of incubated compound in human plasma,[2]; 30 min,957 nM
same,"Incubated compound in human plasma, %",[2]; 30 min,86.6%
same,2-Oxo metabolite concentration in human plasma,[2]; 45 min,0.0522 µM
same,"2-Oxo metabolite in human plasma, %",[2]; 45 min,4.72%
same,Concentration of incubated compound in human plasma,[2]; 45 min,927 nM
same,"Incubated compound in human plasma, %",[2]; 45 min,83.9%
same,2-Oxo metabolite concentration in human plasma,[2]; 60 min,0.0521 µM
same,"2-Oxo metabolite in human plasma, %",[2]; 60 min,4.71%
same,Concentration of incubated compound in human plasma,[2]; 60 min,849 nM
same,"Incubated compound in human plasma, %",[2]; 60 min,76.8%
same,2-Oxo metabolite concentration in human plasma,[2]; 90 min,0.0481 µM
same,"2-Oxo metabolite in human plasma, %",[2]; 90 min,4.35%
same,Concentration of incubated compound in human plasma,[2]; 90 min,705 nM
same,"Incubated compound in human plasma, %",[2]; 90 min,63.8%
same,2-Oxo metabolite concentration in human plasma,[2]; 120 min,0.0457 µM
same,"2-Oxo metabolite in human plasma, %",[2]; 120 min,4.14%
same,Concentration of incubated compound in human plasma,[2]; 120 min,695 nM
same,"Incubated compound in human plasma, %",[2]; 120 min,62.9%
same,2-Oxo metabolite concentration in human plasma,[2]; 150 min,0.0445 µM
same,"2-Oxo metabolite in human plasma, %",[2]; 150 min,4.03%
same,Concentration of incubated compound in human plasma,[2]; 150 min,516 nM
same,"Incubated compound in human plasma, %",[2]; 150 min,46.7%
same,2-Oxo metabolite concentration in human plasma,[2]; 180 min,0.0388 µM
same,"2-Oxo metabolite in human plasma, %",[2]; 180 min,3.51%
same,Concentration of incubated compound in human plasma,[2]; 180 min,475 nM
same,"Incubated compound in human plasma, %",[2]; 180 min,43.0%
same,2-Oxo metabolite concentration in human plasma,[2]; 240 min,0.0331 µM
same,"2-Oxo metabolite in human plasma, %",[2]; 240 min,3.00%
same,Concentration of incubated compound in human plasma,[2]; 240 min,332 nM
same,"Incubated compound in human plasma, %",[2]; 240 min,30.0%
same,2-Oxo metabolite concentration in human plasma,[2]; 300 min,0.0294 µM
same,"2-Oxo metabolite in human plasma, %",[2]; 300 min,2.66%
same,Concentration of incubated compound in human plasma,[2]; 300 min,231 nM
same,"Incubated compound in human plasma, %",[2]; 300 min,20.9%
same,2-Oxo metabolite concentration in human plasma,[2]; 360 min,0.0236 µM
same,"2-Oxo metabolite in human plasma, %",[2]; 360 min,2.14%
same,Concentration of incubated compound in human plasma,[2]; 360 min,164 nM
same,"Incubated compound in human plasma, %",[2]; 360 min,14.8%
same,ED50,"[3]; Rattus norvegicus, inhibition of ADP-induced platelet aggregation, oral administration, read-out: ED50",1.58 mg/kg
same,Inhibition rate (%),[3]; intragastric 0.75 mg/kg,7.0%
same,Inhibition rate (%),[3]; intragastric 1.5 mg/kg,50.8%
same,Inhibition rate (%),[3]; intragastric 3 mg/kg,85.8%
same,Aggregation rate (%),[3]; intragastric 0.75 mg/kg,55.8 ± 13.9%
same,Aggregation rate (%),[3]; intragastric 1.5 mg/kg,29.6 ± 8.7 %
same,Aggregation rate (%),[3]; intragastric 3 mg/kg,8.5 ± 9.4 %
same,"Drug-related toxicity (appearance, mental activity, appetite, hematological, blood biochemical, ECG)",beagle dogs; continuous intragastrical administration for 14 days,no significant drug-related toxicity
same,"Activities, mental condition and diet",beagle dogs; [7],"normal activities, good mental condition, and normal diet"
same,"ECG examinations, hematological tests and serum biochemical tests",beagle dogs; [7],no obvious abnormalities
same,"Activities, mental condition and diet",beagle dogs; [8],"normal activities, good mental condition, and normal diet"
same,"ECG examinations, hematological tests and serum biochemical tests",beagle dogs; [8],no obvious abnormalities
